From US5530141A, “2,4-diaryl-1,3-dithiolanes; 2,4-diaryl-1,3-dioxolanes; 2,4-diaryl-1,3-oxathiolanes; and 2,5-diaryl-1,3-oxathiolanes for the treatment of disorders mediated by platelet activating factor or products of 5-lipoxygenase” (Center for Innovative Technology, priority 1992, dated 1996)

Tests used:
[1] = biological target: T1, RBL 5-LO (Rattus norvegicus, UniProt P12527); experiment: RBL 5-LO inhibition (Table 2); format: biochemical; conditions: unit inferred
T1 construct: cytosol 5-lipoxygenase of rat basophilic leukemia cells (RBL); endogenous in cells; host or cells: rat basophilic leukemia (RBL) cells
T1 sequence (P12527 1-673): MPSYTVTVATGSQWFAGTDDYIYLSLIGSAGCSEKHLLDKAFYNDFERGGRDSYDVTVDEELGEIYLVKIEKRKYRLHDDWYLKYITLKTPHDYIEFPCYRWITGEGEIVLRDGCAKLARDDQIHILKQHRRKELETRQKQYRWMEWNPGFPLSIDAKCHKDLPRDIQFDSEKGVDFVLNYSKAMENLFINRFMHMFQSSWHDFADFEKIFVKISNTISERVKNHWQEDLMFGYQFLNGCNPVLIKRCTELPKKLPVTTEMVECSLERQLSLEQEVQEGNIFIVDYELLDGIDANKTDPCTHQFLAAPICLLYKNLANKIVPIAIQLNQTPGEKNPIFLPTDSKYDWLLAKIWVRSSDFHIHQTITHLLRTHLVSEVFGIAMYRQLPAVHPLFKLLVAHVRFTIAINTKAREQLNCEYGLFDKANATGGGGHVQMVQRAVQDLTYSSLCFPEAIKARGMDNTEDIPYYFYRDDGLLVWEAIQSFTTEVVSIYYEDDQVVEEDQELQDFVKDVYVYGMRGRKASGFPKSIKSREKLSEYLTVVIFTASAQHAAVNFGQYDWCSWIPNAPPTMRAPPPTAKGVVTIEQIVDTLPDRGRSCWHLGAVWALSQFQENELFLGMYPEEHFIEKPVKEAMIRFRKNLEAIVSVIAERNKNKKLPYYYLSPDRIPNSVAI
Text: A wide variety of biological assays have also been used to evaluate the ability of a compound to inhibit the enzyme 5-lipoxygenase. For example, a cytosol 5-lipoxygenase of rat basophilic leukemia cells (RBL) has been widely utilized in studies on leukotriene biosynthesis. Compounds that inhibit 5-lipoxygenase decrease the levels of leukotrienes.

[2] = tested on: PAF receptor; conditions: cited from earlier work
[3] = tested on: 5-lipoxygenase; conditions: cited from earlier work
[4] = biological target: T2, 5-LO (Rattus norvegicus, UniProt P12527); experiment: 5-LO inhibition (Table 1); format: biochemical; conditions: for inhibition at 3 µM: read-out: 5-LO, percent @ 3 μM
T2 sequence (P12527 1-673): T1 sequence (P12527 1-673)

[5] = biological target: T3, specific receptors on human platelet membranes (PAF receptors) (Homo sapiens, UniProt P25105); experiment: [3H]PAF binding inhibition on human platelet membranes (Table 1, PAF); conditions: [3H]PAF 0.3 nM, pH 7.0, 4 h, 0° C
T3 construct: Human platelet membranes were prepared from platelet concentrates obtained from the American Red Cross Blood Services; from tissue; host or cells: human platelets (concentrates from American Red Cross Blood Services, Dedham, Mass.), membrane fractions A and B
T3 sequence (P25105 whole entry): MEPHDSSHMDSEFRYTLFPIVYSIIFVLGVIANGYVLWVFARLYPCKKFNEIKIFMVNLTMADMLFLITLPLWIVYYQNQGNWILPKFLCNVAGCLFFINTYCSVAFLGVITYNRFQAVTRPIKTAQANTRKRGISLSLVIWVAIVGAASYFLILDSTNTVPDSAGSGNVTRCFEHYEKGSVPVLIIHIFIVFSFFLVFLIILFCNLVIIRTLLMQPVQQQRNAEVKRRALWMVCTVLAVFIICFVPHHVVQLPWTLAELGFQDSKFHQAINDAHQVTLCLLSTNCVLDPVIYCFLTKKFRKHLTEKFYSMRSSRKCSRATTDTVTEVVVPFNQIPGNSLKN
Description: Human platelet membranes were prepared from platelet concentrates obtained from the American Red Cross Blood Services (Dedham, Mass.). After several washes with platelet wash solution (150 mM NaCl, 10 mM Tris, and 2 mM EDTA, pH 7.5), the platelet pellets were resuspended in 5 mM MgCl2, 10 mM Tris, and 2 mM EDTA at pH 7.0. The cells were then quickly frozen with liquid nitrogen and thawed slowly at room temperature. The freezing and thawing procedure was repeated at least three times. For further fractionation of membrane fragments, the lysed membrane suspension was layered over the top of a discontinous sucrose density gradient of 0.25, 1.03, and 1.5M sucrose prepared in 10 mM MgCl2, 10 mM Tris and 2 mM EDTA, pH 7.0, and centrifuged at 63,500×g for 2 hr. The membrane fractions banding between 0.25 and 1.03M (membrane A) and between 1.03 and 1.5M (membrane B) were collected separately. The protein concentration of the membrane preparations was determined by Lowry's method with bovine serum albumin (BSA) as the standard. The membranes were then separated into smaller fractions (4 ml each) and stored at -80° C. and thawed before use.
b) [^3 H]PAF Binding inhibition:
The ability of [^3 H]PAF to bind to specific receptors on human platelet membranes was evaluated at optimal conditions at pH 7.0 and in the presence of 10 mM MgCl2. Membrane protein (100 ug) was added to a final 0.5 ml solution containing 0.15 pmol (0.3 nM concentration) of [^3 H]PAF and a known amount of unlabeled PAF or PAF receptor antagonist in 10 mM MgCl2, 10 mM Tris and 0.25% BSA at pH 7.0. After incubation for four hours at 0° C., the bound and unbound [^3 H]PAF were then separated through a Whatman GF/C glass fiber filter under vacuum. No degradation of filter bound [^3 H]PAF has been detected under this assay condition. The nonspecific binding was defined as the total binding in the presence of excess unlabeled PAF (1 mM) where no further displacement was found with higher concentrations of either unlabeled PAF or PAF analogs or PAF receptor antagonists. The specific binding was defined as the difference between total binding and nonspecific binding.
To determine the relative potency of tested compounds, [^3 H]PAF binding in the presence of inhibitors was normalized in terms of percent inhibition by assigning the total binding in the absence of inhibitors as 0% inhibition and the total binding in the presence of 1 mM unlabeled PAF as 100%. The percent inhibition by the compound can be calculated by the formula expressed below:
% inhibition=[(Total binding-total binding in the presence of
compound)/nonspecific binding]×100%
The IC50 was calculated as the concentration of the inhibitor necessary to obtain 50% inhibition of the specific [^3 H]PAF binding and was calculated by a nonlinear regression computer software program, GraphPad Inplot, version 3.0 (GraphPad software, San Diego, Calif.). Table 1 provides the IC50 values for a number of 2,4-diaryl-1,3-dithiolanes.

SMILES: COc1cc(C2SCC(c3cc(OC)c(OC)c(OC)c3)S2)cc(CN(O)C(N)=O)c1OC (stereo not drawn)
- IC50 [1]: 1440 nM

SMILES: COc1cc(C2SCC(c3cc(OC)c(OC)c(OC)c3)S2)cc(CN(O)C(C)=O)c1OC (stereo not drawn)
- IC50 [1]: 850 nM

SMILES: CCCCCCCCCCCCCCCCCCNC(=O)OCC(COP(=O)([O-])OCC[n+]1ccsc1)OC (racemic) [CV-3988, rac-3-(N-n-octadecyl-carbamoyloxy-w-methoxypropyl-2-thiazolioethyl phosphate]
- PAF receptor antagonist activity [2]: PAF receptor antagonist properties

SMILES: C=CCOc1c(NC(=O)N(O)C(C)(C)C)cc([C@H]2O[C@@H](c3cc(OC)c(OC)c(OC)c3)CS2)cc1OC (relative stereo)
- IC50 [1]: 250 nM

SMILES: C=CCOc1c(NC(=O)N(O)C(C)(C)C)cc([C@@H]2O[C@@H](c3cc(OC)c(OC)c(OC)c3)CS2)cc1OC (relative stereo)
- IC50 [1]: 410 nM

SMILES: COc1cc([C@H]2CC[C@H](c3cc(OC)c(OC)c(OC)c3)S2)cc(OC)c1OC (relative stereo) [L-653,150, trans-2,5-bis-(3,4,5-trimethoxyphenyl)tetrahydrothiophene]
- PAF receptor antagonist activity [2]: potent PAF antagonist
- effect on the enzyme 5-lipoxygenase [3]: moderate inhibitor of 5-lipoxygenase

SMILES: CCCOc1c(OC)cc([C@H]2CC[C@H](c3cc(OC)c(OC)c(OC)c3)O2)cc1S(C)(=O)=O (relative stereo) [L-659,989, trans-2-(3-methoxy-4-propoxyphenyl-5-methylsulfonyl)-5-(3,4,5-trimethoxyphenyl)tetrahydrofuran]
- PAF receptor antagonist activity [2]: orally active, potent, competitive PAF receptor antagonist
- equilibrium inhibition constant relative to trans-L-652,731 ([2]; greater than that of trans-L-652,731): 10 times

SMILES: COc1cc([C@H]2SC[C@H](c3cc(OC)c(OC)c(OC)c3)S2)cc(NC(=O)N(C)O)c1OC (relative stereo) [compound 1, Cis and Trans-2-[3,4-dimethoxy-5-(N-hydroxy-N-methylureidyl)phenyl]-4-(3,4,5-trimethoxyphenyl)-1,3-dithiolane]
- IC50 [4]: 220 nM
- IC50 [5]: 259 nM

SMILES: COc1cc([C@H]2SC[C@H](c3cc(OC)c(OC)c(OC)c3)S2)cc(NC(=S)N(C)O)c1OC (relative stereo) [compound 2]
- IC50 [4]: 280 nM

SMILES: COc1cc([C@H]2SC[C@H](c3cc(OC)c(OC)c(OC)c3)S2)cc(NC(=O)N(O)C(C)(C)C)c1OC (relative stereo) [compound 4, Cis and Trans-2-[3,4-dimethoxy-5-(N-t-butyl-N-hydroxyureidyl)phenyl]-4-(3,4,5-trimethoxyphenyl)-1,3-dithiolane]
- IC50 [4]: 320 nM
- IC50 [5]: 798 nM

SMILES: C=CCOc1c(NC(=O)N(C)O)cc([C@H]2SC[C@H](c3cc(OC)c(OC)c(OC)c3)S2)cc1OC (relative stereo) [compound 5, Trans-2-[4-allyloxy-3-methoxy-5-(N-hydroxy-N-methylureidyl)phenyl]-4-(3,4,5-trimethoxyphenyl)-1,3-dithiolane]
- IC50 [4]: 170 nM
- IC50 [5]: 561 nM

SMILES: C=CCOc1c(NC(=O)N(O)C(C)(C)C)cc([C@H]2SC[C@H](c3cc(OC)c(OC)c(OC)c3)S2)cc1OC (relative stereo) [compound 6, Trans-2-[4-allyloxy-3-methoxy-5-(N-t-butyl-N-hydroxyureidyl)phenyl]-4-(3,4,5-trimethoxyphenyl)-1,3-dithiolane]
- IC50 [4]: 570 nM
- IC50 [5]: 543 nM

SMILES: COc1cc([C@H]2CS[C@H](c3cc(OC)c(OCCSc4ccc(O)cc4)c([N+](=O)[O-])c3)S2)cc(OC)c1OC (relative stereo) [compound 7, Trans-2-[4-{2-(4'-hydroxyphenylthio)ethoxy}-3-methoxy-5-nitrophenyl]-4-(3,4,5-trimethoxyphenyl)-1,3-dithiolane]
- inhibition at 3 µM [4]: 57%

SMILES: COc1cc([C@H]2SC[C@H](c3cc(OC)c(OC)c(OC)c3)S2)cc(N)c1OCCSc1ccc(O)cc1 (relative stereo) [compound 8, Trans-2-[5-amino-4-{2-(4'-hydroxyphenylthio)ethoxy}-3-methoxyphenyl]-4-(3,4,5-trimethoxyphenyl)-1,3-dithiolane]
- inhibition at 3 µM [4]: 41%

SMILES: COc1cc([C@H]2SC[C@H](c3cc(OC)c(OC)c(OC)c3)S2)cc(NC(=O)N(C)O)c1OCCSc1ccc(O)cc1 (relative stereo) [compound 9, Trans-2-[5-(N-hydroxy-N-methylureidyl)-4-{2-(4'-hydroxy-phenylthio)ethoxy}-3-methoxyphenyl]-4-(3,4,5-trimethoxyphenyl)-1,3-dithiolane]
- IC50 [4]: 120 nM

SMILES: COc1cc([C@H]2SC[C@H](c3cc(OC)c(OC)c(OC)c3)S2)cc(NC(=O)N(O)c2ccc(Cl)cc2)c1OCCSc1ccc(O)cc1 (relative stereo) [compound 10, Trans-2-[5-(N-(p-chlorophenyl)-N-hydroxyureidyl)-4-{2-(4'-hydroxy-phenylthio)ethoxy}-3-methoxyphenyl]-4-(3,4,5-trimethoxyphenyl)-1,3-dithiolane]
- inhibition at 3 µM [4]: 64%

SMILES: COc1cc([C@H]2SC[C@H](c3cc(OC)c(OC)c(OC)c3)S2)cc(NC(=O)N(C)O)c1OCCSc1ccc(C#N)cc1 (relative stereo) [compound 13, Trans-2-[5-(N-hydroxy-N-methylureidyl)-4-{2-(4'-cyano-phenylthio)ethoxy}-3-methoxyphenyl]-4-(3,4,5-trimethoxyphenyl)-1,3-dithiolane]
- IC50 [4]: 92 nM

SMILES: COc1cc([C@H]2CS[C@H](c3cc(OC)c(OCCSc4ccc(O)cc4)c(N(C)C)c3)S2)cc(OC)c1OC (relative stereo) [compound 14, Trans-2-[5-(N,N-dimethylamino)-4-{2-(4'-hydroxyphenylthio)ethoxy}-3-methoxyphenyl]-4-(3,4,5-trimethoxyphenyl)-1,3-dithiolane]
- inhibition at 3 µM [4]: 25%

SMILES: CCCCN(O)C(=O)Nc1cc(C2SCC(c3cc(OC)c(OC)c(OC)c3)S2)cc(OC)c1OC (stereo not drawn) [compound 3, Trans-2-[3,4-dimethoxy-5-(N-n-butyl-N-hydroxyureidyl)phenyl]-4-(3,4,5-trimethoxyphenyl)-1,3-dithiolane]
- IC50 [4]: 240 nM
- IC50 [5]: 67.8 nM

SMILES: C=CCC1=C[C@@]2(OC)C(=CC1=O)O[C@H](c1ccc(OC)c(OC)c1)[C@H]2C [kadsurenone]
- PAF receptor antagonist activity [2]: potent, specific and competitive inhibitor of PAF activity at the receptor level
